Source: patent US11974995B1, “6′-(4-bromophenyl)-2′-methoxy-3,4′-bipyridine-3′-carbonitrile as an antioxidant compound” (KING FAISAL UNIVERSITY, priority 2023, dated 2024)

Assay: DPPH radical scavenging antioxidant test
Settings: 517 nm; for Inhibition (radical scavenging inhibition): 0.2 mL DPPH (0.75 mM), compound 3 μM in ethanol, 30 minutes in the dark
Method: The antioxidant activity of 6′-(4-bromophenyl)-2′-methoxy-3,4′-bipyridine-3′-carbonitrile was investigated by 2,2-diphenyl-1-picrylhydrazyl (DPPH) in vitro tests that employ vitamin C as the positive control.
The antioxidant properties of the 6′-(4-bromophenyl)-2′-methoxy-3,4′-bipyridine-3′-carbonitrile compound were studied by adding 0.2 mL DPPH (0.75 mM)) to 6′-(4-bromophenyl)-2′-methoxy-3,4′-bipyridine-3′-carbonitrile (3 μM) (4) in ethanol. After 30 minutes of incubation in the dark, the absorbance was read against a blank at 517 nm. Ascorbic acid (vitamin C) was used as standard antioxidants (positive control). A blank sample was prepared by 0.2 mL of DPPH in 3 mL ethanol. A negative control sample was run using ethanol instead of the sample. The radical scavenging inhibition was calculated using the following equation: […]
The antioxidant activity for the synthesized compound is listed in Table 1, using Vitamin C as a reference.

| SMILES | Inhibition (radical scavenging inhibition) | antioxidant potential to vanish the DPPH radical colors, compared to vitamin C (DPPH in vitro test, vitamin C as positive control) |
| --- | --- | --- |
| O=C1O[C@H]([C@@H](O)CO)C(O)=C1O [vit c, Ascorbic acid, reference compound] | 74% | – |
| COc1nc(-c2ccc(Br)cc2)cc(-c2cccnc2)c1C#N [Product 4, 6′-(4-bromophenyl)-2′-methoxy-3,4′-bipyridine-3′-carbonitrile] | 50% | high potential as an antioxidant compared to vitamin C |
